Experimental data reported in the Kinase Knowledgebase extract (Sharma et al. 2016).
Several values for one entry are separate records, joined by “and”; a condition that tells them apart may be missing. Identical values can stand only once.

Tests used:
EGFR (human) [1] = molecular target: EGFR (human) (UniProt P00533); conditions: a431
EGFR (human) [2] = molecular target: EGFR (human) (UniProt P00533); conditions: igrov-1
EGFR (human) [3] = molecular target: EGFR (human) (UniProt P00533); conditions: skov-3
EGFR = EGFR (UniProt P00533)
Chain of EGFR (P00533 whole entry, looked up): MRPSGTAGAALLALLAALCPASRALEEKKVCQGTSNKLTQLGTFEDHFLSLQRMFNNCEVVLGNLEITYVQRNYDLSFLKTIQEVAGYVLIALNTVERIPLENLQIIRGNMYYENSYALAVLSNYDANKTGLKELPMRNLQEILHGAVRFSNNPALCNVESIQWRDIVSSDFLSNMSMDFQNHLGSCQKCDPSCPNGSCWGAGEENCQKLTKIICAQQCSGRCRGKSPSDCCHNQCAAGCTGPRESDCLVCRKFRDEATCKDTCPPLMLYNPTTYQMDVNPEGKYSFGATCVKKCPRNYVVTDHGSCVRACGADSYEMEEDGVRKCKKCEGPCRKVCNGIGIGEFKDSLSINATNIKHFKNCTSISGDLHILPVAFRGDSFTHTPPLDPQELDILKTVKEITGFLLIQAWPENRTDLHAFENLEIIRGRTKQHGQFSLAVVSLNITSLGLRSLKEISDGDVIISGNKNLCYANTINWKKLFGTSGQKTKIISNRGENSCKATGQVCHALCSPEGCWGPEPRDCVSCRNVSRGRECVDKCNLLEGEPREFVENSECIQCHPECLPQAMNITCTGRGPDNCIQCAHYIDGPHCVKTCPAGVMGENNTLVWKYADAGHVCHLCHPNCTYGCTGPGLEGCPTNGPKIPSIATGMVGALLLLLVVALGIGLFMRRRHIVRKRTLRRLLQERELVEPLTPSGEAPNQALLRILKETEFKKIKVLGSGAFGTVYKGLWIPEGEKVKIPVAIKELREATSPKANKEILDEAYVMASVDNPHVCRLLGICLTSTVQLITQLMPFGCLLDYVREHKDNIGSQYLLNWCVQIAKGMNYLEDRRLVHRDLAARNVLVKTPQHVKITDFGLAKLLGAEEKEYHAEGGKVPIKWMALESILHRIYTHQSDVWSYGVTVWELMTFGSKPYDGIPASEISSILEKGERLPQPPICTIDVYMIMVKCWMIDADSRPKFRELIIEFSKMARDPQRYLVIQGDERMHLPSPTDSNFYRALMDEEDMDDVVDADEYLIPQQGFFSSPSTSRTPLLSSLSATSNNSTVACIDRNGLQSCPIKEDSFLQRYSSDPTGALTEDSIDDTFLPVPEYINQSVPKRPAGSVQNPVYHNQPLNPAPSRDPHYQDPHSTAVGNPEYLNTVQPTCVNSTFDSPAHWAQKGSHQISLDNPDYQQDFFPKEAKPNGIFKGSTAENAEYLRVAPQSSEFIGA

EGFR (human) [4] = molecular target: EGFR (human) (UniProt P00533); conditions: a431; remark: listed apart in the source
EGFR (mouse) = EGFR (mouse) (UniProt P00533); conditions: nih3t3

Chain of EGFR (human) (P00533 whole entry, looked up): as above

IC50 (EGFR (human) [1]) [µM] | IC50 (EGFR (human) [2]) [µM] | IC50 (EGFR (human) [3]) [µM] | IC50 (EGFR) [µM] | IC50 (EGFR (human) [4]) | IC50 (EGFR (mouse)) [µM] | SMILES
> 100 | > 100 | > 100 |  |  |  | COc1ccc(OC)c2c1CC(C)=CCC[C@]13O[C@H]1[C@H]2OC3=O
3.6 | 6.1 | 21.9 | 27 | 100 µM and > 100 µM |  | CC1=CCC[C@]23O[C@H]2[C@@H](OC3=O)C2=C(C1)C(=O)C=CC2=O
15.8 | 22.4 | 41.2 |  | 22 µM and 100 µM | 8.3 | CC(=O)Oc1ccc(OC(C)=O)c2c1CC(C)=CCC[C@]13O[C@H]1[C@H]2OC3=O
 |  |  | 26 |  |  | CC1=CCC[C@]23O[C@H]2[C@@H](OC3=O)c2c(O)ccc(O)c2C1
0.1 | 0.8 | 1 | 5.5 |  | 0.02 | CC1=CCC[C@]23O[C@H]2[C@@H](OC3=O)C2=C(C1)C(=O)C(O)=CC2=O
